Consider four compounds from US10414811B2, “Protease-resistant lipidated GLP-1 analogs” (MEDIMMUNE LIMITED, priority 2015, dated 2019).

For one data set, the target named is T1, Neprilysin (Homo sapiens, UniProt P08473).
T1 construct: purchased R&D Systems 1182-ZNC-010
Description: Proteolytic resistance to neprilysin (% remaining peptide, RP-HPLC AUC). It counts as in vitro ADME. As to conditions: t = 0; 37° C., pH 8.3.

The target of data set [1] is T2, human glucagon receptor (GCGR) (Homo sapiens, UniProt P47871).
T2 construct: expressed in transfected cells
T2 sequence (P47871 26-477): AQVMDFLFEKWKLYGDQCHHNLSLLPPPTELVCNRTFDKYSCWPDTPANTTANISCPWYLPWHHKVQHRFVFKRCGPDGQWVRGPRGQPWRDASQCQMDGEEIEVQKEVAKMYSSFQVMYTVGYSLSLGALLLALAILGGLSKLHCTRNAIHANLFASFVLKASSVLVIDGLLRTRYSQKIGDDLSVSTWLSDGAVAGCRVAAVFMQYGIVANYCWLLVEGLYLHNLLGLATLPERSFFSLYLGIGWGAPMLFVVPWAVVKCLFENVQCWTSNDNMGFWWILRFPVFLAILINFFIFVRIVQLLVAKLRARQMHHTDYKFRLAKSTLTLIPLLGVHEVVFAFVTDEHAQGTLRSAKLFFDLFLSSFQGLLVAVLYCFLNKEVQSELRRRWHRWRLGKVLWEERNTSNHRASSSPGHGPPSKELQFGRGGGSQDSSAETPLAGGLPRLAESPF
Description: cAMP assay, human GCGR cells. It counts as cell-based. The gist of the method: (§1)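 Peptide-stimulated cAMP measured by two-step HTRF after a 30 min room-temperature incubation with receptor-expressing cells (hGLP-1R, hGIPR at 1×10^5 cells/ml; hGCGR at 2×10^5 cells/ml). Duplicate dilutions; EC50 from 4-parameter logistic fit of % Delta F.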
(In general: Changes in cAMP serve as a functional read-out for many G protein-coupled receptors.)

The target of data set [2] is T3, human glucose-dependent insulinotropic peptide receptor (GIPR) (Homo sapiens, UniProt P48546).
T3 construct: expressed in transfected cells
T3 sequence (P48546 22-466): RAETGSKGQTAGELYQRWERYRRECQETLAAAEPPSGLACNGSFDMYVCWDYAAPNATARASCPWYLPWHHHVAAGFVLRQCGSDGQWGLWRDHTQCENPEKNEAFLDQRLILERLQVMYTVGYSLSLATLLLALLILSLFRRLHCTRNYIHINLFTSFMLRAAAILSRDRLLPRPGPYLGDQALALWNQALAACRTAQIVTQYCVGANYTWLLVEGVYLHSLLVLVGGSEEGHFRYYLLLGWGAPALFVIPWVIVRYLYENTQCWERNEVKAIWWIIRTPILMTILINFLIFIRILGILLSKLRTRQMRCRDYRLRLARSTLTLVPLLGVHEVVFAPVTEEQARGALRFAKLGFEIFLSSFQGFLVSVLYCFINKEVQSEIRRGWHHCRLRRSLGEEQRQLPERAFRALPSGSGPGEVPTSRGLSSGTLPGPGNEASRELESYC
As to the kind of experiment: cAMP assay, human GIPR cells. It counts as cell-based. The method, boiled down: as §1

The target in a further data set is T4, GLP-1R (INS1e assay) (Rattus norvegicus, UniProt P32301).
T4 construct: endogenous in cells; host or cells: INS-1E cells
T4 sequence (P32301 22-463): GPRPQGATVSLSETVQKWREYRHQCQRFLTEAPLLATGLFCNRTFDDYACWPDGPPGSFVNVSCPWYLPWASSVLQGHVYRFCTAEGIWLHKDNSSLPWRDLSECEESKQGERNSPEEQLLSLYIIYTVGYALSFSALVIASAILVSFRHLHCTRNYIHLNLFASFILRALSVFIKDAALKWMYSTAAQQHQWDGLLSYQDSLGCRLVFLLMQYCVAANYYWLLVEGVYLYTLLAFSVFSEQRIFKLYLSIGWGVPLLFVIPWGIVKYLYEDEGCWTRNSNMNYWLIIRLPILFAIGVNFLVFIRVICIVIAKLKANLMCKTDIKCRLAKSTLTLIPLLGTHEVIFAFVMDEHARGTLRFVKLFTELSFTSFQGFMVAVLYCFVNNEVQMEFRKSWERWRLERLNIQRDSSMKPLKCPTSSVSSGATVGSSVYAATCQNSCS
As to the kind of experiment: INS1e assay, cAMP activity at GLP-1R. It counts as cell-based. The gist of the method:
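cAMP was quantified by two-step HTRF, using anti-cAMP cryptate donor and cAMP-d2 acceptor, each diluted 1/20 in conjugate and lysis buffer. EC50 values of the synthetic peptides were derived from the cAMP readout.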

Data set [3] has as its target T5, human GLP-1 receptor (GLP-1R) (Homo sapiens, UniProt P43220).
T5 construct: expressed in transfected cells
Description: cAMP assay, human GLP-1R cells. It counts as cell-based. The method, boiled down:
as §1

[4] abbreviates: cAMP assay, first determination (n1), read-out: Primary assay EC50 Gluc-R (n1).
The mark [5] stands for this setting: cAMP assay, second determination (n2), read-out: Primary assay EC50 Gluc-R (n2).
Setting [6] is: cAMP assay, first determination (n1), read-out: Primary assay EC50 GIP-R (n1).
Setting [7] is: cAMP assay, second determination (n2), read-out: Primary assay EC50 GIP-R (n2).
[8] abbreviates: mono-lipidated peptides, mean of n1 and n2, read-out: INS1e assay EC50 Mean pM GLP-1R.
The mark [9] stands for this setting: mono-lipidated peptides, replicate n1, read-out: INS1e assay EC50 GLP-1R n1.
Setting [10] is: mono-lipidated peptides, replicate n2, read-out: INS1e assay EC50 GLP-1R n2.

Like-named read-outs stand apart in the source and are kept apart here. Numbered stars: 1 amine (or outer) side, 2 acyl side, 3 side chain; on linkers, the order of the positions; unused ones are H or OH. Square brackets hold non-standard residues; d marks the D form. Side chains are listed from the residue outwards. Peptide text beside a SMILES is read from it. * marks the point of attachment. γGlu = O=C(O)[C@H](CCC(=O)[*:2])N[*:1]; Palmitoyl = CCCCCCCCCCCCCCCC(=O)*; αMeF = C[C@](N)(Cc1ccccc1)C(=O)O; αMeK = C[C@](N)(CCCCN)C(=O)O; Lauroyl = CCCCCCCCCCCC(=O)*; AEEA = NCCOCCOCC(=O)O; Aib = CC(C)(N)C(=O)O Some results are limits rather than exact numbers.

T5 sequence (P43220 24-463): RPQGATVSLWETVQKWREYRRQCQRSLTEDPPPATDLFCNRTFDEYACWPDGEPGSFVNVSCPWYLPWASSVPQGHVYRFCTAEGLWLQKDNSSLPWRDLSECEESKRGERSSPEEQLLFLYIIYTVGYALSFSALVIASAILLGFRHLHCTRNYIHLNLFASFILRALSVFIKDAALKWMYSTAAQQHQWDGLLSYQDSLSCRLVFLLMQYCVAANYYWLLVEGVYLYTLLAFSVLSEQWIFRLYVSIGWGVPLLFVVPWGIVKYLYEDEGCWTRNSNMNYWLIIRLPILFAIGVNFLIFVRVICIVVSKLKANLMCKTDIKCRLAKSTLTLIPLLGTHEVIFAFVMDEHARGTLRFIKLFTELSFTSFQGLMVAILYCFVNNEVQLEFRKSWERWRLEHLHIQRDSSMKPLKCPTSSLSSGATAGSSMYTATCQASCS
T1 sequence (P08473 whole entry): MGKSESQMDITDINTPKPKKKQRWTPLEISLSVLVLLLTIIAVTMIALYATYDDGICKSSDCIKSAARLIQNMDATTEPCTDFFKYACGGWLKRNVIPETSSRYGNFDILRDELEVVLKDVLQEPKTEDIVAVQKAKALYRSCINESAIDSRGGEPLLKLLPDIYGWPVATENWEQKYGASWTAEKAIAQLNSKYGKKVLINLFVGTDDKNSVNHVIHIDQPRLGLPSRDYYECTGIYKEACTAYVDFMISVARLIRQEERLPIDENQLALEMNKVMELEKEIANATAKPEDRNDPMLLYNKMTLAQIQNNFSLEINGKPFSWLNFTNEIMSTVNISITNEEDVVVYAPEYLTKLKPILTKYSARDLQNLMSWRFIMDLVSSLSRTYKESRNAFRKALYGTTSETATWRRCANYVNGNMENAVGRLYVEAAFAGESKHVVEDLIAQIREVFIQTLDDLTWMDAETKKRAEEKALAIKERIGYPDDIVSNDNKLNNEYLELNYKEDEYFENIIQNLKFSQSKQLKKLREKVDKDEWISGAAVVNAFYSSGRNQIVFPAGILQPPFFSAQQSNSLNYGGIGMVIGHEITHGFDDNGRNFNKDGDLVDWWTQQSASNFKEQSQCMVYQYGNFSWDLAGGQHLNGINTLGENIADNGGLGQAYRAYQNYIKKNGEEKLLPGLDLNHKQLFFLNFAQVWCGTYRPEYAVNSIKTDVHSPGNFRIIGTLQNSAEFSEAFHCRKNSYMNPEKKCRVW
Description for Neprilysin: Ratio enzyme (units):peptide (μmoles)˜1:33. […] Ratio enzyme (units):peptide (μmoles)˜1:2.5.
15 μL aliquots (˜15 μg initial peptide) of the peptide-enzyme mixture were periodically withdrawn (t=0, 30 mins, 1 hr, 2 hr, 4 hr, 8 hr, 24 hr) and quenched immediately by addition to an equal volume (15 μL) of 5% TFA (v/v) in 1:1 water/acetonitrile to arrest proteolytic activity. 20 μL aliquots (˜10 μg initial peptide) were analyzed by LC/MS and/or analytical RP-HPLC as follows: LC/MS method: Agilent Polaris C8-A column (4.6×100 mm, 3 micron) eluted with a linear binary gradient of 10-90% MeCN (0.1% TFA v/v) in water (0.1% TFA v/v) over 30 mins at 1.5 mL min-1 at ambient temperature with detection by both UV absorption at 210 nm and ionization using a Waters 3100 mass detector (ESI+ mode). Peptide fragments deriving from enzymatic hydrolysis were identified by molecular weight, allowing location of the site of cleavage. Analytical RP-HPLC method: Agilent Polaris C8-A column (4.6×100 mm, 3 micron) eluted with a linear binary gradient of 10-90% MeCN (0.1% TFA v/v) in water (0.1% TFA v/v) over either 10 or 15 mins at 1.5 mL min^−1 at 40° C. with detection by UV absorption at 210 nm. Manual integration (AUC) allowed estimation of remaining intact peptide over the time course of the experiment.
25 μL aliquots (˜6 μg initial peptide) were analyzed by LC/MS and/or analytical RP-HPLC as follows: LC/MS method: Agilent Polaris C8-A column (4.6×100 mm, 3 micron) eluted with a linear binary gradient of 10-90% MeCN (0.1% TFA v/v) in water (0.1% TFA v/v) over 30 mins at 1.5 mL min^−1 at ambient temperature with detection by both UV absorption at 210 nm and ionization using a Waters 3100 mass detector (ESP mode). Peptide fragments deriving from enzymatic hydrolysis were identified by molecular weight, allowing location of the site of cleavage. Analytical RP-HPLC method: Agilent Polaris C8-A column (4.6×100 mm, 3 micron) eluted with a linear binary gradient of 10-90% MeCN (0.1% TFA v/v) in water (0.1% TFA v/v) over either 10 or 15 mins at 1.5 mL min^−1 at 40° C. with detection by UV absorption at 210 nm. Manual integration (AUC) allowed estimation of remaining intact peptide over the time course of the experiment.

Consider `CCCCCCCCCCCCCCCC(=O)NCCCC[C@H](NC(=O)CNC(=O)CNC(=O)[C@](C)(CCCCN)NC(=O)[C@@H](NC(=O)[C@@H](NC(=O)[C@](C)(Cc1ccccc1)NC(=O)[C@H](C)NC(=O)[C@@H](NC(=O)[C@](C)(Cc1ccccc1)NC(=O)[C@H](CCC(=O)O)NC(=O)[C@](C)(CCCCN)NC(=O)[C@H](C)NC(=O)[C@H](C)NC(=O)[C@H](CCC(N)=O)NC(=O)CNC(=O)[C@H](CCC(=O)O)NC(=O)[C@H](CC(C)C)NC(=O)[C@](C)(Cc1ccccc1)NC(=O)[C@H](CO)NC(=O)[C@H](CO)NC(=O)[C@@H](NC(=O)[C@H](CC(=O)O)NC(=O)[C@H](CO)NC(=O)[C@@H](NC(=O)[C@](C)(Cc1ccccc1)NC(=O)[C@H](CO)NC(=O)CNC(=O)[C@H](CCC(=O)O)NC(=O)C(C)(C)NC(=O)[C@@H](N)Cc1c[nH]cn1)[C@@H](C)O)C(C)C)[C@@H](C)CC)C(C)C)C(C)C)C(N)=O` [compound 489] (H-H[Aib]EGS[αMeF]TSDVSS[αMeF]LEGQAA[αMeK]E[αMeF]IA[αMeF]VV[αMeK]GGK(Palmitoyl)-NH2), for which, at Neprilysin, the “Percentage remaining peptide (AUC at specified time-point by RP-HPLC) upon incubation with neprilysin, t = 0” value is reported as 100%.

On to `CC[C@H](C)[C@H](NC(=O)[C@](C)(Cc1ccccc1)NC(=O)[C@H](CCC(=O)O)NC(=O)[C@](C)(CCCCN)NC(=O)[C@H](C)NC(=O)[C@H](C)NC(=O)[C@H](CCC(=O)O)NC(=O)CNC(=O)[C@H](CCC(=O)O)NC(=O)[C@H](CC(C)C)NC(=O)[C@](C)(Cc1ccccc1)NC(=O)[C@H](CO)NC(=O)[C@](C)(CO)NC(=O)[C@@H](NC(=O)[C@H](CC(=O)O)NC(=O)[C@H](CO)NC(=O)[C@@H](NC(=O)[C@](C)(Cc1ccccc1)NC(=O)[C@H](CO)NC(=O)CNC(=O)[C@H](CCC(=O)O)NC(=O)C(C)(C)NC(=O)[C@@H](N)Cc1c[nH]cn1)[C@@H](C)O)C(C)C)C(=O)N[C@@H](C)C(=O)N[C@@](C)(Cc1ccccc1)C(=O)N[C@H](C(=O)N[C@H](C(=O)N[C@@](C)(CCCCN)C(=O)NCC(=O)NCC(N)=O)C(C)C)C(C)C` [compound 17], for which the EC50 in data set [1] (setting [4]) was not below 31 nM; in data set [1] (setting [5]), not below 31 nM; in data set [2] (setting [6]), not below 31 nM; in data set [2] (setting [7]), not below 31 nM; on GLP-1R (INS1e assay) (setting [8]), 6 pM; at GLP-1R (INS1e assay) (setting [9]), 5.1 pM. Besides, the EC50 at GLP-1R (INS1e assay) (setting [10]) worked out at 7.87 pM. The “Percentage remaining peptide (AUC at specified time-point by RP-HPLC) upon incubation with neprilysin, t = 0” value on Neprilysin worked out at 100%.

In the case of `CCCCCCCCCCCC(=O)N[C@@H](CCC(=O)NCCOCCOCC(=O)NCCOCCOCC(=O)NCCCC[C@H](NC(=O)[C@H](C)NC(=O)[C@@H](NC(=O)[C@H](Cc1ccccc1)NC(=O)[C@H](CCC(=O)O)NC(=O)[C@](C)(CCCCN)NC(=O)[C@H](C)NC(=O)[C@H](C)NC(=O)[C@H](CCC(=O)O)NC(=O)[C@H](CCCCNC(=O)COCCOCCNC(=O)COCCOCCNC(=O)CC[C@H](NC(=O)CCCCCCCCCCC)C(=O)O)NC(=O)[C@H](CCC(=O)O)NC(=O)[C@H](CC(C)C)NC(=O)[C@H](Cc1ccc(O)cc1)NC(=O)[C@H](CO)NC(=O)[C@H](CO)NC(=O)[C@H](CCCCNC(=O)COCCOCCNC(=O)COCCOCCNC(=O)CC[C@H](NC(=O)CCCCCCCCCCC)C(=O)O)NC(=O)[C@H](CC(=O)O)NC(=O)[C@H](CO)NC(=O)[C@@H](NC(=O)[C@](C)(Cc1ccccc1)NC(=O)[C@H](CO)NC(=O)CNC(=O)[C@H](CCC(=O)O)NC(=O)C(C)(C)NC(=O)[C@@H](N)Cc1c[nH]cn1)[C@@H](C)O)[C@@H](C)CC)C(=O)N[C@H](C(=O)N[C@H](C(=O)N[C@@H](CCC(=O)O)C(=O)NCC(=O)NCC(N)=O)C(C)C)C(C)C)C(=O)O` [compound 455] (H-H[Aib]EGS[αMeF]TSDK([AEEA-AEEA-γGlu-Lauroyl])SSYLEK([AEEA-AEEA-γGlu-Lauroyl])EAA[αMeK]EFIAK([AEEA-AEEA-γGlu-Lauroyl])VVEGG-NH2), the EC50 in data set [1] (tris-lipidated peptides, first replicate, read-out: Primary assay EC50 Gluc-R (n1)) was 19.8 nM; in data set [2] (tris-lipidated peptides, second replicate, read-out: Primary assay EC50 GIP-R (n2)) it was 19.8 nM; in data set [3] (tris-lipidated peptides, mean of n1 and n2, read-out: Primary assay EC50 Mean pM GLP-1R), 87.4 pM; in data set [3] (tris-lipidated peptides, replicate n1, read-out: Primary assay EC50 GLP-1R n1), 54.8 pM; in data set [3] (tris-lipidated peptides, replicate n2, read-out: Primary assay EC50 GLP-1R n2), 120 pM; on GLP-1R (INS1e assay) (tris-lipidated peptides, mean of n1 and n2, read-out: INS1e assay EC50 Mean pM GLP-1R), 4910 pM. Besides, the EC50 at GLP-1R (INS1e assay) (tris-lipidated peptides, replicate n1, read-out: INS1e assay EC50 GLP-1R n1) came out at 6740 pM; on GLP-1R (INS1e assay) (tris-lipidated peptides, replicate n2, read-out: INS1e assay EC50 GLP-1R n2), 3080 pM.

In the case of `CCCCCCCCCCCCCCCC(=O)N[C@@H](CCC(=O)NCCCC[C@H](NC(=O)[C@H](C)NC(=O)[C@H](C)NC(=O)[C@H](CCC(=O)O)NC(=O)CNC(=O)[C@H](CCC(=O)O)NC(=O)[C@H](CC(C)C)NC(=O)[C@](C)(Cc1ccccc1)NC(=O)[C@H](CO)NC(=O)[C@](C)(CO)NC(=O)[C@@H](NC(=O)[C@H](CC(=O)O)NC(=O)[C@H](CO)NC(=O)[C@@H](NC(=O)[C@](C)(Cc1ccccc1)NC(=O)[C@H](CO)NC(=O)CNC(=O)[C@H](CCC(=O)O)NC(=O)C(C)(C)NC(=O)[C@@H](N)Cc1c[nH]cn1)[C@@H](C)O)C(C)C)C(=O)N[C@@H](CCC(=O)O)C(=O)N[C@@](C)(Cc1ccccc1)C(=O)N[C@H](C(=O)N[C@@H](C)C(=O)N[C@@](C)(Cc1ccccc1)C(=O)N[C@H](C(=O)N[C@H](C(=O)N[C@@](C)(CCCCN)C(=O)NCC(=O)NCC(N)=O)C(C)C)C(C)C)[C@@H](C)CC)C(=O)O` [compound 80], the EC50 in data set [1] (setting [4]) is not below 28 nM; in data set [1] (setting [5]) it was not below 28 nM; in data set [2] (setting [6]), not below 28 nM; in data set [2] (setting [7]), not below 28 nM; in data set [3] (cAMP assay, first determination (n1), read-out: Primary assay EC50 GLP-1R n1), 31 pM; in data set [3] (cAMP assay, second determination (n2), read-out: Primary assay EC50 GLP-1R n2), 17 pM. For the same compound, the EC50 in data set [3] (mean of n1 and n2, read-out: Mean pM GLP-1R) is 24 pM; at GLP-1R (INS1e assay) (setting [8]) it was 2610 pM; on GLP-1R (INS1e assay) (setting [9]), 3890 pM; on GLP-1R (INS1e assay) (setting [10]) it was 1330 pM.
